From patent US20260165323A1, “USE OF STROBILURIN TYPE COMPOUNDS FOR COMBATING PHYTOPATHOGENIC FUNGI CONTAINING AN AMINO ACID SUBSTITUTION F129L IN THE MITOCHONDRIAL CYTOCHROME B PROTEIN CONFERRING RESISTANCE TO QO […]” (priority 2022, published 2026)

Key:
Puccinia recondita [1] = test: Use Example 4: preventative control of brown rust on wheat (PUCCRT P7); type: in vivo; conditions: inoculated seven days after spraying, % diseased leaf area
How it was run: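 First two leaves of potted wheat seedlings sprayed to run-off with compound in acetone/DMSO–emulsifier–water, then inoculated with Puccinia recondita spores seven days later. Plants held 24 h dark at 95–99% RH and 20–24 °C, then 9–11 days in greenhouse; diseased leaf area (%) scored visually.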

[2] = tested on: Phakopsora pachyrhizi containing the amino acid substitution F129L in the mitochondrial cytochrome b protein; test: Use Example 2: protective control of soybean rust on soybeans (PHAKPA P6); type: in vivo; conditions: inoculated six days after spraying, % diseased leaf area
How it was run: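 Compound in acetone and/or DMSO with Wettol (99:1), diluted with water, was sprayed to run-off on potted soybean seedlings. After six days at 23–27°C and 60–80% RH, plants were inoculated with a Qo-resistant F129L strain and held 24 h at about 95% RH. Percent diseased leaf area was scored visually after up to 14 days.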

[3] = tested on: Botrytis cinerea (BOTRCI); test: Use example 6: microtest, growth of Botrytis cinerea (BOTRCI); type: cell-based; conditions: relative growth vs compound-free control (100%); for Growth at 125 ppm (%) BOTRCI Use Ex. 6: 7 days after inoculation; for Growth (%) BOTRCI Use Ex. 6: 0.5 ppm, 7 days
Description: (§1) The active compounds were formulated separately as a stock solution having a concentration of 10000 ppm in dimethyl sulfoxide. The stock solutions were mixed according to the ratio, pipetted onto a micro titer plate (MTP) and diluted with water to the stated concentrations. A spore suspension of one of the following fungal plant pathogens in aqueous bio malt solution • was then added for the respective use example: • Use example 5: Alternaria solani (ALTESO) • Use example 6: Botrytis cinerea (BOTRCI) • Use example 7: Cercospora sojina (CERCSO) • Use example 8: Colletotrichum orbiculare (COLLLA) • Use example 9: Leptosphaeria nodorum (LEPTNO) • Use example 10: Drechslera teres (PYRNTE) containing the amino acid substitution F129L in the mitochondrial cytochrome b protein conferring resistance to Qo inhibitors • Use example 11: Sclerotinia sclerotiorum (SCLESC), solute with ultrasonic from a filter membrane
(§2) The plates were placed in a water vapor-saturated chamber at a temperature of 18° C. Using an absorption photometer, the MTPs were measured at 405 nm 7 days after the inoculation.
(§3) The measured parameters were compared to the growth of the active compound-free control variant (100%) and the fungus-free blank value to determine the relative growth in % of the pathogens in the respective active compounds.

[4] = tested on: Leptosphaeria nodorum (LEPTNO); test: Use example 9: microtest, growth of Leptosphaeria nodorum (LEPTNO); type: cell-based; conditions: relative growth vs compound-free control (100%), 7 days after inoculation
Description: as §1, §2, §3

[5] = tested on: Phakopsora pachyrhizi containing the amino acid substitution F129L in the mitochondrial cytochrome b protein; test: Use Example 1: protective control of soybean rust on soybeans (PHAKPA P2); type: in vivo; conditions: inoculated 2 days after spraying, % diseased leaf area
How it was run: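 Soybean seedling leaves sprayed to run-off with compound in acetone/DMSO–Wettol–water at the stated concentration, kept 2 days at 23-27° C, then inoculated with Qo-inhibitor-resistant F129L P. pachyrhizi. After 24 h at ~95% RH, 20-24° C, and up to 14 days in greenhouse, % diseased leaf area scored visually.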

[6] = tested on: Sclerotinia sclerotiorum (SCLESC); test: Use example 11: microtest, growth of Sclerotinia sclerotiorum (SCLESC); type: cell-based; conditions: relative growth vs compound-free control (100%), 7 days after inoculation; for Growth (%) SCLESC Use ex. 11: 8 ppm
Description: as §1, §2, §3

[7] = tested on: Cercospora sojina (CERCSO); test: Use example 7: microtest, growth of Cercospora sojina (CERCSO); type: cell-based; conditions: 31 ppm; relative growth vs compound-free control (100%), 7 days
Description: as §1, §2, §3

Puccinia recondita [8] = test: Use Example 3: curative control of brown rust on wheat (PUCCRT K4); type: in vivo; conditions: % diseased leaf area
How it was run: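 Wheat seedlings inoculated with Puccinia recondita spores, held 24 h at 95–99% RH, 20–24° C in dark, then 3 days in greenhouse before spraying to run-off (curative). Compound in acetone/DMSO–Wettol–water. After 5–7 further days at 20–24° C, 65–70% RH, % diseased leaf area scored visually.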

[9] = tested on: Drechslera teres (PYRNTE) containing the amino acid substitution F129L in the mitochondrial cytochrome b protein; test: Use example 10: microtest, growth of Drechslera teres (PYRNTE) F129L; type: cell-based; conditions: 125 ppm; relative growth vs compound-free control (100%), 7 days; Table 7
Description: as §1, §2, §3

[10] = tested on: Alternaria solani (ALTESO); test: Use example 5: microtest, growth of Alternaria solani (ALTESO); type: cell-based; conditions: 0.125 ppm; relative growth vs compound-free control (100%), 7 days after inoculation
Description: as §1, §2, §3

Compound | % PUCCRT Disease level P7 at 4 ppm (Puccinia recondita [1]) [%] | % PUCCRT Disease level P7 at 16 ppm (Puccinia recondita [1]) [%] | % PHAKPA (F129L) Disease level P6 at 4 ppm [2] [%] | % PHAKPA (F129L) Disease level P6 at 16 ppm [2] [%] | Growth at 125 ppm (%) BOTRCI Use Ex. 6 [3] [%] | Growth at 125 ppm (%) LEPTNO Use Ex. 9 [4] [%] | % PHAKPA (F129L) Disease level P2 at 4 ppm [5] [%] | % PHAKPA (F129L) Disease level P2 at 16 ppm [5] [%] | Growth at 125 ppm (%) SCLESC Use Ex. 11 [6] [%] | Growth (%) CERCSO Use Ex. 7 [7] [%] | % PUCCRT Disease level K4 at 4 ppm (Puccinia recondita [8]) [%] | % PUCCRT Disease level K4 at 16 ppm (Puccinia recondita [8]) [%] | Growth (%) BOTRCI Use Ex. 6 [3] [%] | Growth (%) PYRNTE F129L Use Ex. 10 [9] [%] | Growth (%) ALTESO Use ex. 5 [10] [%] | Growth (%) SCLESC Use ex. 11 [6] [%]
COC/C(=N\OCc1c(Br)cccc1/C(=N\OC)C(=O)OC)c1ccccc1 [compound 57] | 60 | 13 | 48 | 21 | 0 | 1 | 41 | 3 | 2 | – | – | – | – | – | – | –
COC/C(=N\OCc1c(Cl)cccc1/C(=N\OC)C(=O)OC)c1ccc(Cl)cc1 [compound 34] | 48 | 9 | 80 | 25 | – | – | 68 | 22 | – | 56 | 75 | 70 | 35 | 4 | – | –
COC/C(=N\OCc1c(C)cccc1/C(=N\OC)C(=O)OC)c1ccc(F)cc1 [reference compound] | – | – | – | – | – | – | – | – | – | – | – | – | – | – | 97 | 89
COC/C(=N\OCc1c(Cl)cccc1/C(=N\OC)C(=O)OC)c1ccc(F)cc1 [compound 1, Methyl (2E)-2-[3-chloro-2-[[(Z)-[1-(4-fluorophenyl)-2-methoxy-ethylidene]amino]oxymethyl]phenyl]-2-methoxyimino-acetate] | 53 | 23 | 57 | 11 | – | – | 20 | 1 | – | – | 87 | 77 | – | – | 73 | 72
COC/C(=N\OCc1c(C)cccc1/C(=N\OC)C(=O)OC)c1ccc(Cl)cc1 [I.1-A-83, reference compound] | – | – | – | – | – | – | – | – | – | 83 | – | – | 53 | 23 | – | –
CO/N=C(/C(=O)OC)c1cccc(Br)c1CO/N=C(\C)c1ccccc1 [reference compound] | – | – | – | – | 69 | 19 | – | – | 39 | – | – | – | – | – | – | –
